Where two headings read alike, the source gives them in different places.
Key:
clinical [1] = conditions: male, human, in vivo; for CL renal: CLr; for half-life: T½
Protocol: Subjects were randomized to receive cilansetron 8 mg IV solution (30-minute infusion), cilansetron 8 mg oral solution, and a cilansetron 8 mg capsule during the three treatment periods, with a 23-day washout between periods. All doses were administered under fasted conditions. […] Table 2.7.1.2.3 presents descriptive statistics for the pharmacokinetic parameters of cilansetron capsule and oral solution, and the results of statistical comparisons between treatments (capsule versus solution). […] Median Tmax was also similar between the capsule and oral solution.
Subjects were randomized to receive cilansetron 8 mg IV solution (30-minute infusion), cilansetron 8 mg oral solution, and a cilansetron 8 mg capsule during the three treatment periods, with a 23-day washout between periods. All doses were administered under fasted conditions. […] Its low bioavailability, complete absorption from the GI tract, and its 4.5- to 5-fold higher apparent oral clearance in comparison to systemic clearance indicate that cilansetron is a high extraction drug and undergoes significant first pass metabolism on oral administration. Intersubject % CVs were higher for oral (47-73%) than for IV administration (19-20%), reflecting increased variability due to oral absorption. Intrasubject % CVs ranged from 37-47% following oral and IV administration.
Cilansetron concentrations in this study were also modeled using a standard 2-compartment model for the IV data and a 1-compartment model for the oral data (using TOPFIT 2.0). The results from modeling are compared to the results obtained from non-compartmental analysis in Table 2.7.2.3.10 below, for the oral and IV solution. The results obtained by the two methods are very similar.

[2] = both, human, in vivo
Protocol: Two randomized, double-blind, placebo controlled, balanced incomplete block design, crossover studies evaluated the single- and multiple-dose pharmacokinetics of oral cilansetron over a 8 mg to 32 mg dose range. In both studies, subjects were randomized to receive two of three treatments during 2 treatment periods. In one study (12 male and 13 female subjects, aged 23 to 36 years), subjects received 8 mg cilansetron, 16 mg cilansetron, or placebo, while in another study (12 males and 13 females, aged 23 to 41 years), subjects received 16 mg cilansetron, 32 mg cilansetron, or placebo. During each treatment period, subjects received a single dose of their assigned treatment on the first day, followed by a 3-day washout, after which they received the same treatment TID for 5 days.
There was a 5-6 day washout period between treatment periods. Doses on the mornings of pharmacokinetic days were administered under fasted conditions. Serial blood sampling and urine collection was performed up to 12 hours following morning dosing on the first day (single dose) and on the last multiple dosing day of each treatment period, and cilansetron pharmacokinetic parameters were evaluated.
In two randomized, double-blind, placebo controlled, balanced incomplete block design, crossover studies evaluating the single- and multiple-dose pharmacokinetics of oral cilansetron over a 8 mg to 32 mg dose range, subjects were randomized to receive two of three treatments during 2 treatment periods. In Study S.241.1.101; (12 male and 13 female subjects, aged 23 to 36 years), subjects received 8 mg cilansetron, 16 mg cilansetron, or placebo, while in Study S.24 1.1.102; (12 males and 13 females, aged 23 to 41 years), subjects received 16 mg cilansetron, 32 mg cilansetron, or placebo. During each treatment period, subjects received a single dose of their assigned treatment on the first day, followed by a 3-day washout, after which they received the same treatment TID for 5 days. There was a 5-6 day washout period between treatment periods. Doses on the mornings of pharmacokinetic days were administered under fasted conditions. Serial blood sampling and urine collection was performed up to 12 hours following morning dosing on the first day (single dose) and on the last multiple dosing day of each treatment period, and cilansetron pharmacokinetic parameters were evaluated.

[3] = human, in vivo
Protocol: Subjects were randomized to receive a cilansetron 8 mg capsule after an overnight fast and a cilansetron 8 mg capsule after a high-fat breakfast during the two treatment periods, with a 3-day washout between periods. Serial blood sampling and urine collection was performed up to 24 hours following each dose, and cilansetron pharmacokinetic parameters were evaluated.

clinical [4] = format: in vitro ADME; conditions: both sexes, human, serum, % free in serum
Protocol: Steady state serum samples for measurement of cilansetron protein binding were collected at predose, and 1 and 1.5 hours postdose on Day 6.

CYP1A2 = CYP1A2 (Homo sapiens, UniProt P05177); test: biochemical
Sequence of CYP1A2 (P05177 whole entry): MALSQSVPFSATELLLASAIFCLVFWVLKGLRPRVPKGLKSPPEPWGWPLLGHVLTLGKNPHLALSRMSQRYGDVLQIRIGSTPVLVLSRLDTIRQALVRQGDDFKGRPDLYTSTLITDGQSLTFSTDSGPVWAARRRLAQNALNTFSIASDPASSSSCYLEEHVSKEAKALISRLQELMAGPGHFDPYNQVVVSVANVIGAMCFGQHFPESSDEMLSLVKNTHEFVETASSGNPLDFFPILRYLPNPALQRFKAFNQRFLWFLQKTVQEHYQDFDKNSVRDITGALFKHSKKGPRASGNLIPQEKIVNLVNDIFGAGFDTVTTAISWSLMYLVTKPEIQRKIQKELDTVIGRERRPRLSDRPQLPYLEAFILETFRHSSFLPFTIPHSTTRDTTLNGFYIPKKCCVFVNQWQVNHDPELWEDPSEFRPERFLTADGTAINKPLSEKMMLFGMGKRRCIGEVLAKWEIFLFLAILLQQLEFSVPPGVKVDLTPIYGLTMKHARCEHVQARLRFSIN

Q: Which “AUC(0-inf) ratio Oral Capsule/IV Soln” value (clinical [1]) does the source give for Cc1nccn1C[C@H]1CCc2c(c3cccc4c3n2CCC4)C1=O [Cilansetron, (R)-(−)-4,5,6,8,9,10-hexahydro-10-[(2-methyl-1H-imidazol-1-yl)methyl]-11H-pyrido-[3,2,1-jk]-carbazol-11-one] here?
A: The value was 25 (19, 32) %.

Q: What about the “AUC(0-inf) ratio Oral Soln/IV Soln” value (clinical [1]) of the same molecule?
A: Its value is 26 (20, 34) %.

Q: And the “AUC(0-last) ratio Oral Capsule/IV Soln” value (clinical [1])?
A: The value was 23 (18, 31) %.

Q: What about the “AUC(0-last) ratio Oral Soln/IV Soln” value (clinical [1]) of the same molecule?
A: The value was 24 (18, 32) %.

Q: What about the “Intrasubject % CV” value (clinical [1]) of the same molecule?
A: Its value is 37-47%.

Q: And the “% Dose (urine)” value (clinical [1]; iv)?
A: The value was 0.41 (96) %.

Q: And the “AUC(0-inf)” value (clinical [1]; iv)?
A: Its value is 222 (42) ng · h/mL.

Q: And the CL (clinical [1]; iv)?
A: The CL was 619 (108) mL/min.

Q: And the “Intersubject % CV” value (clinical [1]; iv)?
A: The value was 19-20%.

Q: What about the T½ (clinical [1]; iv) of the same molecule?
A: The T½ was 1.33 (0.32) h.

Q: And the Vss (clinical [1]; iv)?
A: Its Vss is 58 (11) L.

Q: And the AUC(0-inf) (clinical [1]; iv, 8 mg, AUC(0-inf))?
A: The AUC(0-inf) was 234 ng·h/mL.

Q: And the AUC(0-t) (clinical [1]; iv, 8 mg, AUC(0-last))?
A: Its AUC(0-t) is 228 ng·h/mL.

Q: What about the clearance (clinical [1]; iv, 8 mg, CL) of the same molecule?
A: Its clearance is 590 mL/min.

Q: What about the CL renal (clinical [1]; iv, 8 mg) of the same molecule?
A: Its CL renal is 2.3 mL/min.

Q: And the clearance (clinical [1]; iv, 8 mg, Systemic plasma clearance)?
A: The clearance was roughly 600 mL/min.

Q: And the half-life (clinical [1]; iv, 8 mg)?
A: Its half-life is 1.33 h.

Q: And the Vd (clinical [1]; iv, 8 mg, Vss)?
A: The Vd was 55.6 L.

Q: And the Vd (clinical [1]; iv, 8 mg, Vz)?
A: The Vd was 66.7 L.

Q: And the AUC(0-inf) (clinical [1]; iv, AUC (0-inf))?
A: Its AUC(0-inf) is 234 ng·h/mL.

Q: And the clearance (clinical [1]; iv, CL)?
A: The clearance was 590 mL/min.

Q: What about the Cmax (clinical [1]; iv, Cmax) of the same molecule?
A: Its Cmax is 149 ng/mL.

Q: And the Vd (clinical [1]; iv, Steady-state volume of distribution (Vss))?
A: Its Vd is roughly 56 L.

Q: And the Tmax (clinical [1]; iv, Tmax)?
A: The Tmax was 0.55 h.

Q: What about the half-life (clinical [1]; iv) of the same molecule?
A: Its half-life is 1.33 h.

Q: What about the Vd (clinical [1]; iv, Vss) of the same molecule?
A: Its Vd is 56 L.

Q: And the “AUC (0-inf) ratio capsule:oral solution” value (clinical [1]; po)?
A: Its value is 93%.

Q: What about the “AUC (0-last) ratio capsule:oral solution” value (clinical [1]; po) of the same molecule?
A: Its value is 96%.

Q: And the “AUC(0-inf)” value (clinical [1]; po)?
A: The value was 69 (49) ng · h/mL.

Q: And the “Apparent oral clearance higher than systemic clearance” value (clinical [1]; po)?
A: The value was 4.5-5 fold.

Q: What about the Cmax (clinical [1]; po) of the same molecule?
A: The Cmax was 29 (18) ng/mL.

Q: And the “Cmax ratio capsule:oral solution” value (clinical [1]; po)?
A: Its value is 88%.

Q: What about the “Intersubject % CV” value (clinical [1]; po) of the same molecule?
A: Its value is 47-73%.

Q: And the Tmax (clinical [1]; po)?
A: Its Tmax is 0.76 (0.40) h.

Q: And the T½ (clinical [1]; po)?
A: Its T½ is 1.14 (0.27) h.

Q: What about the bioavailability (clinical [1]; po) of the same molecule?
A: The bioavailability was 25%.

Q: And the “AUC(0-inf)” value (clinical [1]; po, 8 mg)?
A: The value was 73.8 (69) ng · h/mL.

Q: And the “AUC(0-last)” value (clinical [1]; po, 8 mg)?
A: The value was 69.3 (73) ng · h/mL.

Q: And the CLr (clinical [1]; po, 8 mg)?
A: Its CLr is 2.37 (95) mL/min.

Q: What about the Cmax (clinical [1]; po, 8 mg) of the same molecule?
A: The Cmax was 39.2 (67) ng/mL.

Q: What about the Tmax (clinical [1]; po, 8 mg) of the same molecule?
A: Its Tmax is 0.83 (0.33, 1.25) h.

Q: What about the T½ (clinical [1]; po, 8 mg) of the same molecule?
A: Its T½ is 1.47 (21) h.

Q: And the Vz/F (clinical [1]; po, 8 mg)?
A: The Vz/F was 308 (79) L.

Q: And the AUC(0-inf) (clinical [1]; po, 8 mg, AUC (0-inf))?
A: The AUC(0-inf) was 66 ng·h/mL.

Q: What about the AUC(0-t) (clinical [1]; po, 8 mg, AUC (0-last)) of the same molecule?
A: Its AUC(0-t) is 62.1 ng·h/mL.

Q: What about the CL renal (clinical [1]; po, 8 mg) of the same molecule?
A: The CL renal was 2.92 mL/min.

Q: What about the Cmax (clinical [1]; po, 8 mg, Cmax) of the same molecule?
A: The Cmax was 31.4 ng/mL.

Q: What about the Tmax (clinical [1]; po, 8 mg, Tmax) of the same molecule?
A: Its Tmax is 1 h.

Q: And the half-life (clinical [1]; po, 8 mg)?
A: The half-life was 1.28 h.

Q: What about the Vd/F (clinical [1]; po, 8 mg, Vz/F) of the same molecule?
A: Its Vd/F is 342 L.

Q: What about the AUC(0-inf) (clinical [1]; po, AUC (0-inf)) of the same molecule?
A: The AUC(0-inf) was 74 ng·h/mL.

Q: What about the Cmax (clinical [1]; po, Cmax) of the same molecule?
A: The Cmax was 39 ng/mL.

Q: What about the Tmax (clinical [1]; po, Tmax) of the same molecule?
A: The Tmax was 0.76 h.

Q: And the half-life (clinical [1]; po)?
A: The half-life was 1.47 h.

Q: What about the “Dose excreted unchanged in urine” value [2] of the same molecule?
A: The value was “less than 1%”.

Q: What about the “Intrasubject % CV” value [2] of the same molecule?
A: Its value is 23-51%.

Q: What about the “Mean AUC(0-τ) (multiple dose) to AUC(0-inf) (single dose) ratios” value [2] of the same molecule?
A: Its value is 81-94%.

Q: And the “AUC Ratio (90% CI)” value ([2]; 8 mg)?
A: The value was 84 (46, 154) %.

Q: And the “Cmax Ratio (90% CI)” value ([2]; 8 mg)?
A: The value was 82 (42, 160) %.

Q: What about the DN-AUC ([2]; 8 mg) of the same molecule?
A: Its DN-AUC is 14.0 (49) ng · h/mL.

Q: And the “AUC Ratio (90% CI)” value ([2]; 16 mg)?
A: The value was 58 (32, 103) %.

Q: And the “Cmax Ratio (90% CI)” value ([2]; 16 mg)?
A: Its value is 54 (29, 103) %.

Q: What about the “AUC Ratio (90% CI)” value ([2]; po, 8 mg) of the same molecule?
A: Its value is 81 (46, 145) %.

Q: And the “Cmax Ratio (90% CI)” value ([2]; po, 8 mg)?
A: The value was 77 (46, 128) %.

Q: And the “AUC Ratio (90% CI)” value ([2]; po, 16 mg)?
A: Its value is 82 (47, 142) %.

Q: What about the “Cmax Ratio (90% CI)” value ([2]; po, 16 mg) of the same molecule?
A: The value was 79 (49, 130) %.

Q: What about the CL/F ([3]; 8 mg) of the same molecule?
A: The CL/F was 2698 (77) mL/min.

Q: What about the “% Dose (urine)” value ([3]; male) of the same molecule?
A: The value was 0.21 (91) %.

Q: And the “AUC (0-last) ratio fed/fasted” value ([3]; male)?
A: The value was 108%.

Q: What about the “AUC(0-inf) ratio fed/fasted” value ([3]; male) of the same molecule?
A: Its value is 104%.

Q: And the Cmax ratio fed/fasted ([3]; male)?
A: Its Cmax ratio fed/fasted is 79%.

Q: And the “AUC(0-inf)” value ([3]; male, 8 mg)?
A: Its value is 77.6 (66) ng · h/mL.

Q: And the “AUC(0-last)” value ([3]; male, 8 mg)?
A: The value was 72.8 (72) ng · h/mL.

Q: What about the CLr ([3]; male, 8 mg) of the same molecule?
A: Its CLr is 3.86 (90) mL/min.

Q: And the Cmax ([3]; male, 8 mg)?
A: The Cmax was 31.7 (58) ng/mL.

Q: What about the “Cmax decrease with high-fat meal” value ([3]; male, 8 mg) of the same molecule?
A: Its value is 21%.

Q: And the Tmax ([3]; male, 8 mg)?
A: Its Tmax is 1.00 (0.50, 2.00) h.

Q: And the T½ ([3]; male, 8 mg)?
A: Its T½ is 1.43 (40) h.

Q: And the Vz/F ([3]; male, 8 mg)?
A: Its Vz/F is 309 (76) L.

Q: And the fraction unbound (clinical [4])?
A: The fraction unbound was 0.055.

Q: What about the IC50 (CYP1A2) of the same molecule?
A: Its IC50 is 60 µM.
